Measured values: US20080057003A1, “Powder inhaler formulations” (priority 2001, published 2008)

Test: Triboelectrification in a cyclone separator (specific charge, mass transport, adhesion)
Assay type: physicochemical
Settings: for specific charge: untreated micronized drug, stainless steel cyclone, FIG. 1 / FIG. 3
Text: In the processing of micronized or microfine active substances for DPI, it is common to subject the powder to a sieving process in order to remove large agglomerates prior to mixing with the carrier particles used in the DPI formulation. […] The experimental method for electrostatic charge determinations that was applied is outlined in more detail below.
Electrostatic charge of powder samples was investigated using a cyclone apparatus linked to a Faraday well and force compensation load cell to measure charge and mass simultaneously. 1 g samples of powder were transported through the apparatus using dry compressed air (rh<10%) at 8 m s^−1 for triboelectrification against a stainless steel surface.
The charge Q (nC) and mass M (g) values were used to calculate the specific charge Q/M (nC g^−1) at the completion of each experimental run. The results are mean values with coefficient of variation values for 5 replicates. The mass of material entering the Faraday well was used to quantify the mass transport through the apparatus and this was used to assess the flow and adhesion characteristics of the powder. In addition, the amount of material adhered to the cyclone wall was estimated visually and rated on a scale from 0 (no adhesion) to 3 (extensive adhesion).
Approximately 10 g of drug powder samples were placed in a 60M (250 μm) sieve and agitated using a sieve shaker (Glen Creston, 47-300) with an oscillation amplitude regulator at setting 20 for 20 minutes. Sieved powder samples were stored in glass jars and then kept in a desiccator for a week prior to charge investigations in the cyclone.

[1] = sieved samples, tiotropium treated with sorbitan derivative at 600 mg l^−1, or untreated, cyclone

| SMILES | specific charge (sieved) | specific charge (unsieved) | Mean charge (cv %) [1] | Mean mass transfer (cv %) [1] |
| --- | --- | --- | --- | --- |
| CC(Cc1ccc(O)cc1)NCC(O)c1cc(O)cc(O)c1 (stereo not drawn) [fenoterol, Fenoterol] | −92 nC g^−1 | −40 nC g^−1 |  |  |
| C[N+]1(C)[C@@H]2C[C@@H](OC(=O)C(O)(c3cccs3)c3cccs3)C[C@H]1[C@@H]1O[C@@H]12 [tiotropium, Tiotropium] | +201 nC g^−1 | +52 nC g^−1 | +201 (3.2) nC g^−1 | 2.5 (8.0) % |
